Data on seven compounds can be found in PubChem BioAssay (NCI).

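Where inhibition never reached the appropriate level, the endpoint shown equals the highest concentration tested. Otherwise, values were interpolated linearly from a five-concentration, 48-hour dose response in 96-well plates. Abbreviation: GI50, concentration required for 50% inhibition of growth. TGI: concentration producing complete growth inhibition.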

Among the test systems are MDA-MB-435; SF-295 CNS; K-562 leukemia; OVCAR-3 ovarian; CAKI-1 renal; ACHN renal; HOP-62 NSCLC; PC-3 prostate; UACC-62 melanoma; SNB-75 CNS.
Assay in all cases: growth of human tumour cells (NCI), 48 h

For the compound `Clc1nc(Cl)c2ncn(Cc3cccc(COc4cccc(OCc5cccc(Cn6cnc7c(Cl)nc(Cl)nc76)c5)c4)c3)c2n1`, the GI50 was 13.8 µM in the assay with MDA-MB-435; > 100 µM with SF-295 CNS; 71.9 µM in the assay with K-562 leukemia; 7.26 µM in the assay on OVCAR-3 ovarian; > 100 µM in the assay on CAKI-1 renal; 54.5 µM with ACHN renal. Also, the GI50 was 58.2 µM with HOP-62 NSCLC, 14.6 µM with PC-3 prostate, 60 µM with UACC-62 melanoma and > 100 µM in the assay with SNB-75 CNS. Moreover, the TGI was > 100 µM in the assay with MDA-MB-435; > 100 µM in the assay on SF-295 CNS; > 100 µM in the assay on K-562 leukemia; 34.7 µM with OVCAR-3 ovarian; > 100 µM in the assay with CAKI-1 renal; > 100 µM in the assay with ACHN renal. Further, the TGI in the assay with HOP-62 NSCLC was > 100 µM; in the assay on PC-3 prostate it was 47 µM; in the assay with UACC-62 melanoma, > 100 µM; with SNB-75 CNS it was > 100 µM.
As for `O=C(O)CC1OCC=C2CN3CCC45c6ccccc6NC4C1C2CC35` (centres undefined), the TGI in the assay on MDA-MB-435, in the assay on SF-295 CNS, in the assay on K-562 leukemia, in the assay on OVCAR-3 ovarian, with CAKI-1 renal and in the assay on ACHN renal was > 100 µM each time. Also, the TGI in the assay on HOP-62 NSCLC, with PC-3 prostate, with UACC-62 melanoma and in the assay on SNB-75 CNS was > 100 µM throughout.
Consider `COc1cc(C2=NN(C(C)=O)C(c3ccc(OC(C)=O)cc3OC(C)=O)O2)c(OC(C)=O)c2ccccc12` (centres undefined), for which the GI50 in the assay on MDA-MB-435 is 1.38 µM; in the assay on SF-295 CNS, 1.68 µM; with K-562 leukemia, 0.872 µM; with OVCAR-3 ovarian it was 0.402 µM; in the assay on CAKI-1 renal, 0.465 µM; in the assay with ACHN renal, 0.447 µM. The GI50 in the assay on HOP-62 NSCLC is 0.565 µM; in the assay on PC-3 prostate, 0.753 µM; in the assay on UACC-62 melanoma, 0.897 µM; with SNB-75 CNS, 2.28 µM. In addition, the TGI was 39 µM in the assay on MDA-MB-435; 23.8 µM in the assay on SF-295 CNS; > 91.2 µM in the assay on K-562 leukemia; 13.9 µM in the assay with OVCAR-3 ovarian; > 21.1 µM with CAKI-1 renal; > 35.6 µM with ACHN renal. For the same compound, the TGI in the assay on HOP-62 NSCLC was 14.6 µM; in the assay with PC-3 prostate, 35.4 µM; in the assay with UACC-62 melanoma, 9.67 µM; in the assay on SNB-75 CNS, 29.6 µM.
Take `CC1CN1CC(O)C(O)CN1CC1C` (centres undefined): the GI50 in the assay on MDA-MB-435 is 4.93 µM; with SF-295 CNS, 0.494 µM; with K-562 leukemia it was 2.02 µM; in the assay on OVCAR-3 ovarian, 2.52 µM; with CAKI-1 renal it was 0.229 µM; with ACHN renal it was 0.395 µM. Further, the GI50 in the assay with HOP-62 NSCLC was 2.89 µM; with PC-3 prostate, 12.5 µM; in the assay on UACC-62 melanoma it was 2.99 µM; in the assay with SNB-75 CNS it was 4.08 µM. The TGI with MDA-MB-435 was 24.8 µM; in the assay on SF-295 CNS, > 33.4 µM; in the assay on K-562 leukemia, > 100 µM; with OVCAR-3 ovarian it was 10.7 µM; in the assay with CAKI-1 renal it was 4.54 µM; in the assay on HOP-62 NSCLC, > 71.9 µM. The TGI is > 78.4 µM with PC-3 prostate, > 53.2 µM in the assay on UACC-62 melanoma and > 63 µM in the assay on SNB-75 CNS.
`CCS(=O)(=O)c1ccc(OC)c(Nc2ncc(-c3cccc(OC)c3)o2)c1`: the GI50 in the assay on MDA-MB-435 is 18.2 µM; with SF-295 CNS, 9.72 µM; in the assay with K-562 leukemia, 4.34 µM; in the assay on OVCAR-3 ovarian, 9.92 µM; with CAKI-1 renal it was 8.58 µM; with ACHN renal, 6.61 µM. Besides, the GI50 was 9.41 µM in the assay on HOP-62 NSCLC, 8.61 µM in the assay with PC-3 prostate, 9.52 µM in the assay on UACC-62 melanoma and 6.26 µM in the assay on SNB-75 CNS. The TGI with MDA-MB-435, in the assay with SF-295 CNS, in the assay with K-562 leukemia, with OVCAR-3 ovarian, in the assay with CAKI-1 renal and in the assay with ACHN renal was > 25 µM in each case. Further, the TGI with HOP-62 NSCLC is > 25 µM; in the assay with PC-3 prostate it was > 25 µM; in the assay with UACC-62 melanoma it was > 25 µM; in the assay on SNB-75 CNS, > 18.2 µM.
On to `CCC#CC[C@H]1C/C=C2/C(=O)C=C[C@@H]2C/C=C\CCCC(=O)O1`, for which the GI50 in the assay with MDA-MB-435 was 0.68 µM; with SF-295 CNS, 1.43 µM; in the assay with K-562 leukemia, 0.661 µM; in the assay with OVCAR-3 ovarian, 0.568 µM; in the assay with CAKI-1 renal, 0.935 µM; in the assay on ACHN renal, 0.763 µM. Also, the GI50 was 1.02 µM in the assay with HOP-62 NSCLC, 1.35 µM in the assay with PC-3 prostate, 0.559 µM with UACC-62 melanoma and 4.38 µM in the assay with SNB-75 CNS. The TGI in the assay with MDA-MB-435 amounted to 2.18 µM; in the assay on SF-295 CNS it was 4.36 µM; with K-562 leukemia, 4.44 µM; in the assay with OVCAR-3 ovarian it was 3.31 µM; in the assay on CAKI-1 renal, 2.1 µM; with ACHN renal, 1.56 µM. In addition, the TGI is 3.26 µM in the assay with HOP-62 NSCLC, 6.05 µM in the assay with PC-3 prostate, 1.8 µM in the assay with UACC-62 melanoma and 10.8 µM in the assay with SNB-75 CNS.
As for `CCOC(=O)c1c(CN2CCN(c3ccccc3)CC2)n(-c2ccccc2)c2cc(Br)c(O)cc12`, the GI50 in the assay with MDA-MB-435 was 11.3 µM; in the assay on SF-295 CNS, 4.7 µM; with K-562 leukemia it was 6.32 µM; in the assay on OVCAR-3 ovarian it was 13 µM; in the assay with CAKI-1 renal, 15.3 µM; in the assay on ACHN renal it was 8.39 µM. The GI50 with HOP-62 NSCLC is 17.2 µM; in the assay with PC-3 prostate it was 3.21 µM; in the assay on UACC-62 melanoma, 16.1 µM; with SNB-75 CNS, 17.7 µM. The TGI with MDA-MB-435 is 34.4 µM; in the assay with SF-295 CNS, 24.3 µM; in the assay on K-562 leukemia, > 100 µM; with OVCAR-3 ovarian, 32.1 µM; in the assay on CAKI-1 renal, 36.9 µM; in the assay on ACHN renal it was 21.9 µM. Further, the TGI is 33.4 µM with HOP-62 NSCLC, 13.3 µM in the assay on PC-3 prostate, 29.6 µM with UACC-62 melanoma and 90.5 µM with SNB-75 CNS.
